Reference: patent US7608604B2, “Antiparasitic agents” (Pfizer Limited, priority 2007, dated 2009)

Tested on: Haemonchus contortus L3
Experiment: Haemonchus contortus L3 (HcL3) in vitro test
Type: cell-based
Details: minimum effective dose
Description: The Haemonchus contortus L3 (HcL3) test is used to measure the biological activities of the compounds claimed. The assay involves in vitro testing against H. contortus conducted according to the following general procedure.
HcL3 larvae were collected from infected sheep and, after cleaning, stored in water at 12° C. for up to one month. Viable infective larvae were exsheathed using 10% hypochlorite in Glucose Tyrodes balanced salt solution containing antibiotics and resuspended in basal medium (20 g/l bacto-tryptone, 5 g/l yeast extract, 57 g/l glucose, 0.8 g/l di-Potassium hydrogen orthophosphate, 0.8 g/l potassium dihydrogen orthophosphate and […] Hepes with antibiotics). 95 μl worm suspension was added to each well of a 96 well plate.
Test compounds were dissolved in dimethylsulfoxide to give a working stock solution of 20 mg/ml. The stock concentration was diluted 1:10 in Basal media to give 2.0 mg/ml (10% DMSO). 5 μl of the stock compound solution was added to the worm suspension to give a final concentration of 100 μg/ml. Plates were sealed with pressure sensitive film and incubated at 37° C. Observations were made 2 hrs, 24 hrs, 48 hrs, 72 hrs and 4 days post-treatment using an inverted microscope. Activity was recorded if a significant proportion of the worms were dead or adversely affected by the compound when compared to the control well containing 1% DMSO. Compounds were initially tested at 100 μg/ml, wherefrom relevant dose responses (100, 30, 10, 3, 1, 0.3, 0.1 μg/ml) were conducted in duplicate experiments to generate n=2. Data was recorded as minimum effective dose.

[1] = exsheathed L3 larvae in vitro, 37° C., observed up to 4 days, n=2
[2] = table of Examples 13a-42, 13a/b, 27a/b, 29a/b, 33a/b tested as mixtures of regioisomers

SMILES: CC(C#N)(COc1cc(C#N)ccc1C(F)(F)F)NC(=O)c1ccc(S(F)(F)(F)(F)F)cc1 (racemic) [Example 1a, N-{1-cyano-2-[5-cyano-2-(trifluoromethyl)phenoxy]-1-methylethyl}-4-(pentafluorothio)benzamide]
- in vitro H.c. (L3) MED [1]: 3 µg/mL

SMILES: CC(C#N)(COc1cc(C#N)ccc1Cl)NC(=O)c1ccc(S(F)(F)(F)(F)F)cc1 (racemic) [Example 2, N-[2-(2-Chloro-5-cyanophenoxy)-1-cyano-1-methylethyl]-4-(pentafluorothio)benzamide]
- in vitro H.c. (L3) MED [1]: 1 µg/mL

SMILES: CC(C#N)(COc1ccc(C#N)cc1C(F)(F)F)NC(=O)c1ccc(S(F)(F)(F)(F)F)cc1 (racemic) [Example 3a, N-{1-Cyano-2-[4-cyano-2-(trifluoromethyl)Phenoxy]-1-methylethyl}-4-(pentafluorothio)benzamide]
- in vitro H.c. (L3) MED [1]: 1 µg/mL

SMILES: CC(C#N)(COc1c(F)cc(C#N)cc1C(F)(F)F)NC(=O)c1ccc(S(F)(F)(F)(F)F)cc1 (racemic) [Example 4, N-{1-Cyano-2-[4-cyano-2-fluoro-6-(trifluoromethyl)phenoxy]-1-methylethyl}-4-(pentafluorothio)benzamide]
- in vitro H.c. (L3) MED [1]: 3 µg/mL

SMILES: CC(C#N)(COc1ccc(C(N)=O)cc1C(F)(F)F)NC(=O)c1ccc(S(F)(F)(F)(F)F)cc1 (racemic) [Example 43, 4-(2-Cyano-2-{[4-(pentafluorothio)benzoyl]amino}propoxy)-3-(trifluoromethyl)benzamide]
- in vitro H.c. (L3) MED (unit not given): 1

SMILES: CC(C#N)(COc1cc(C#N)cc(C(F)(F)F)c1Cl)NC(=O)c1ccc(S(F)(F)(F)(F)F)cc1 (racemic) [Example 44, N-{2-[2-Chloro-5-cyano-3-(trifluoromethyl)phenoxy]-1-cyano-1-methylethyl}-4-(pentafluorothio)benzamide]
- in vitro H.c. (L3) MED (unit not given): 10

SMILES: CC(C#N)(COc1cccc(C#N)c1)NC(=O)c1ccc(S(F)(F)(F)(F)F)cc1 (racemic) [Example 50, N-[1-Cyano-2-(3-cyanophenoxy)-1-methylethyl]-4-(pentafluorothio)benzamide]
- in vitro H.c. (L3) MED (unit not given): 3

SMILES: CC(C#N)(COc1cc(C#N)cc(C(N)=O)c1)NC(=O)c1ccc(S(F)(F)(F)(F)F)cc1 (racemic) [Example 53, 3-Cyano-5-(2-cyano-2-{[4-(pentafluorothio)benzoyl]amino}propoxy)benzamide]
- in vitro H.c. (L3) MED (unit not given): 30

SMILES: C[C@](C#N)(COc1cc(C#N)ccc1C(F)(F)F)NC(=O)c1ccc(S(F)(F)(F)(F)F)cc1 (single isomer, unassigned) [Example 1c, N-{1-cyano-2-[5-cyano-2-(trifluoromethyl)phenoxy]-1-methylethyl}-4-(pentafluorothio)benzamide]
- in vitro H.c. (L3) MED [1]: > 30 µg/mL

SMILES: CC(C#N)(COc1ccc(C#N)cc1C(F)(F)F)NC(=O)c1ccc(S(F)(F)(F)(F)F)cc1 (single isomer, unassigned) [Example 3b, N-{1-Cyano-2-[4-cyano-2-(trifluoromethyl)Phenoxy]-1-methylethyl}-4-(pentafluorothio)benzamide]
- in vitro H.c. (L3) MED [1]: 1 µg/mL

SMILES: CC(C#N)(COc1ccc(C#N)cc1C(F)(F)F)NC(=O)c1ccc(S(F)(F)(F)(F)F)cc1 (single isomer, unassigned) [Example 3c, N-{1-Cyano-2-[4-cyano-2-(trifluoromethyl)Phenoxy]-1-methylethyl}-4-(pentafluorothio)benzamide]
- in vitro H.c. (L3) MED [1]: > 30 µg/mL

SMILES: CC(C#N)(COc1cc(C#N)ccc1C(F)(F)F)NC(=O)c1ccc(S(F)(F)(F)(F)F)cc1 (centres unmarked) [Example 1b, N-{1-cyano-2-[5-cyano-2-(trifluoromethyl)phenoxy]-1-methylethyl}-4-(pentafluorothio)benzamide]
- in vitro H.c. (L3) MED [1]: 1 µg/mL

SMILES: CC(C#N)(COc1ccc(C#N)cc1Cl)NC(=O)c1ccc(S(F)(F)(F)(F)F)cc1 (centres unmarked) [Example 5, N-[2-(2-Chloro-4-cyanophenoxy)-1-cyano-1-methylethyl]-4-(pentafluorothio)benzamide]
- H.c. (L3) MED (table of Examples 5-11): 3 µg/mL

SMILES: CC(C#N)(COc1ccc(C#N)c(Cl)c1)NC(=O)c1ccc(S(F)(F)(F)(F)F)cc1 (centres unmarked) [Example 6, N-[2-(3-Chloro-4-cyanophenoxy)-1-cyano-1-methylethyl]-4-(pentafluorothio)benzamide]
- H.c. (L3) MED (table of Examples 5-11): 3 µg/mL

SMILES: CC(C#N)(COc1cc(C#N)cc(C(F)(F)F)c1)NC(=O)c1ccc(S(F)(F)(F)(F)F)cc1 (centres unmarked) [Example 7, N-{1-cyano-2-[3-cyano-5-(trifluoromethyl)phenoxy]-1-methylethyl}-4-(pentafluorothio)benzamide]
- H.c. (L3) MED (table of Examples 5-11): 30 µg/mL

SMILES: CC(C#N)(COc1c(F)cc(F)cc1C#N)NC(=O)c1ccc(S(F)(F)(F)(F)F)cc1 (centres unmarked) [Example 8, N-[1-Cyano-2-(2-cyano-4,6-difluorophenoxy)-1-methylethyl]-4-(pentafluorothio)benzamide]
- H.c. (L3) MED (table of Examples 5-11): 30 µg/mL

SMILES: CC(C#N)(COc1cc(C#N)ccc1C#N)NC(=O)c1ccc(S(F)(F)(F)(F)F)cc1 (centres unmarked) [Example 9, N-[1-Cyano-2-(3,6-dicyanophenoxy)-1-methylethyl]-4-(pentafluorothio)benzamide]
- H.c. (L3) MED (table of Examples 5-11): 3 µg/mL

SMILES: CC(C#N)(COc1ccc(Br)cc1C(F)(F)F)NC(=O)c1ccc(S(F)(F)(F)(F)F)cc1 (centres unmarked) [Example 10, N-{2-[4-Bromo-2-(trifluoromethyl)phenoxy]-1-cyano-1-methylethyl}-4-(pentafluorothio)benzamide]
- H.c. (L3) MED (table of Examples 5-11): 10 µg/mL

SMILES: CC(C#N)(COc1ccc(C#N)cc1Br)NC(=O)c1ccc(S(F)(F)(F)(F)F)cc1 (centres unmarked) [Example 11, N-[2-(2-Bromo-4-cyanophenoxy)-1-cyano-1-methylethyl]-4-(pentafluorothio)benzamide]
- H.c. (L3) MED (table of Examples 5-11): 3 µg/mL

SMILES: CC(C#N)(COc1ccc(Cl)cc1Cl)NC(=O)c1ccc(S(F)(F)(F)(F)F)cc1 (centres unmarked) [Example 12, N-[1-Cyano-2-(2,4-dichlorophenoxy)-1-methylethyl]-4-(pentafluorothio)benzamide]
- in vitro H.c. (L3) MED (unit not given): 3

SMILES: CC(C#N)(COc1cc(Cl)cc(C#N)c1)NC(=O)c1ccc(S(F)(F)(F)(F)F)cc1 (centres unmarked) [Example 14, N-[2-(3-Chloro-5-cyanophenoxy)-1-cyano-1-methylethyl]-4-(pentafluorothio)benzamide]
- H.c. (L3) MED [2]: 3 µg/mL

SMILES: CC(C#N)(COc1cc(Br)ccc1C#N)NC(=O)c1ccc(S(F)(F)(F)(F)F)cc1 (centres unmarked) [Example 16, N-[2-(5-Bromo-2-cyanophenoxy)-1-cyano-1-methylethyl]-4-(pentafluorothio)benzamide]
- H.c. (L3) MED [2]: 10 µg/mL

SMILES: CC(C#N)(COc1ccc(Cl)cc1C#N)NC(=O)c1ccc(S(F)(F)(F)(F)F)cc1 (centres unmarked) [Example 17, N-[2-(4-Chloro-2-cyanophenoxy)-1-cyano-1-methylethyl]-4-(pentafluorothio)benzamide]
- H.c. (L3) MED [2]: 3 µg/mL

SMILES: CC(C#N)(COc1cccc(F)c1C#N)NC(=O)c1ccc(S(F)(F)(F)(F)F)cc1 (centres unmarked) [Example 18, N-[1-Cyano-2-(2-cyano-3-fluorophenoxy)-1-methylethyl]-4-(pentafluorothio)benzamide]
- H.c. (L3) MED [2]: 10 µg/mL

SMILES: CC(C#N)(COc1ccccc1C#N)NC(=O)c1ccc(S(F)(F)(F)(F)F)cc1 (centres unmarked) [Example 19, N-[1-Cyano-2-(2-cyanophenoxy)-1-methylethyl]-4-(pentafluorothio)benzamide]
- H.c. (L3) MED [2]: 10 µg/mL

SMILES: CC(C#N)(COc1ccc(I)cc1)NC(=O)c1ccc(S(F)(F)(F)(F)F)cc1 (centres unmarked) [Example 20, N-[1-Cyano-2-(4-iodophenoxy)-1-methylethyl]-4-(pentafluorothio)benzamide]
- H.c. (L3) MED [2]: 3 µg/mL

SMILES: CC(C#N)(COc1ccccc1C(F)(F)F)NC(=O)c1ccc(S(F)(F)(F)(F)F)cc1 (centres unmarked) [Example 21, N-{1-Cyano-1-methyl-2-[2-(trifluoromethyl)phenoxy]ethyl}-4-(pentafluorothio)benzamide]
- H.c. (L3) MED [2]: 30 µg/mL

SMILES: CC(C#N)(COc1ccc(C#N)cc1)NC(=O)c1ccc(S(F)(F)(F)(F)F)cc1 (centres unmarked) [Example 22, N-[1-Cyano-2-(4-cyanophenoxy)-1-methylethyl]-4-(pentafluorothio)benzamide]
- H.c. (L3) MED [2]: 10 µg/mL

SMILES: CC(C#N)(COc1cc(F)cc(Cl)c1)NC(=O)c1ccc(S(F)(F)(F)(F)F)cc1 (centres unmarked) [Example 23, N-[2-(3-Chloro-5-fluorophenoxy)-1-cyano-1-methylethyl]-4-(pentafluorothio)benzamide]
- H.c. (L3) MED [2]: 30 µg/mL

SMILES: CC(C#N)(COc1cc(Cl)ccc1C#N)NC(=O)c1ccc(S(F)(F)(F)(F)F)cc1 (centres unmarked) [Example 24, N-[2-(5-Chloro-2-cyanophenoxy)-1-cyano-1-methylethyl]4-(pentafluorothio)benzamide]
- H.c. (L3) MED [2]: 3 µg/mL

SMILES: CC(C#N)(COc1ccccc1Cl)NC(=O)c1ccc(S(F)(F)(F)(F)F)cc1 (centres unmarked) [Example 25, N-[2-(2-Chlorophenoxy)-1-cyano-1-methylethyl]-4-(pentafluorothio)benzamide]
- H.c. (L3) MED [2]: 10 µg/mL

SMILES: CC(C#N)(COc1cccc(Cl)c1C#N)NC(=O)c1ccc(S(F)(F)(F)(F)F)cc1 (centres unmarked) [Example 26, N-[2-(3-Chloro-2-cyanophenoxy)-1-cyano-1-methylethyl]-4-(pentafluorothio)benzamide]
- H.c. (L3) MED [2]: 10 µg/mL
